In the NIST ThermoML archive (doi:10.1021/je101256z):
Several values for one entry are separate records, joined by “and”; a condition that tells them apart may be missing. Identical values can stand only once.

Details: Liquid, Vibrating wire viscometry

Cc1cccc2ccccc12 [1-methylnaphthalene]
298.15 K
Details	viscosity
200 kPa	2.9 mPa·s and 2.89 mPa·s
1000 kPa	2.94 mPa·s and 2.93 mPa·s and 2.92 mPa·s
10000 kPa	3.24 mPa·s
39900 kPa	4.4 mPa·s and 4.41 mPa·s
40000 kPa	4.42 mPa·s
79900 kPa	6.65 mPa·s and 6.67 mPa·s
80000 kPa	6.68 mPa·s and 6.65 mPa·s
120100 kPa	10.17 mPa·s and 10.12 mPa·s

CC(C)CCCCCCCOC(=O)c1ccccc1C(=O)OCCCCCCCC(C)C
Details	viscosity
274.07 K, 100 kPa	606.7 mPa·s
274.35 K, 100 kPa	588.6 mPa·s
282.95 K, 100 kPa	270.2 mPa·s
283.03 K, 100 kPa	265.9 mPa·s
298.15 K, 200 kPa	87.63 mPa·s [middle of 8 runs]
298.15 K, 10000 kPa	112.08 mPa·s and 112.26 mPa·s
298.15 K, 20000 kPa	143.67 mPa·s and 143.41 mPa·s and 143.42 mPa·s
298.15 K, 40000 kPa	231.39 mPa·s [middle of 6 runs]
298.25 K, 100 kPa	87.67 mPa·s
305.15 K, 200 kPa	57.12 mPa·s [middle of 5 runs]
305.26 K, 100 kPa	57.43 mPa·s
313.15 K, 200 kPa	37.1 mPa·s [middle of 5 runs]
313.15 K, 10100 kPa	46.34 mPa·s and 46.33 mPa·s and 46.23 mPa·s
313.15 K, 20000 kPa	57.28 mPa·s and 57.35 mPa·s and 57.32 mPa·s
313.15 K, 40000 kPa	87.15 mPa·s and 87.13 mPa·s and 87.03 mPa·s
313.15 K, 59900 kPa	130.49 mPa·s and 130.29 mPa·s
313.15 K, 60000 kPa	130.33 mPa·s
313.15 K, 80000 kPa	194.08 mPa·s and 194.41 mPa·s and 195.2 mPa·s
313.27 K, 100 kPa	37.41 mPa·s
327.83 K, 100 kPa	19.32 mPa·s
343.15 K, 200 kPa	10.99 mPa·s [middle of 5 runs]
343.15 K, 10100 kPa	13.33 mPa·s and 13.35 mPa·s
343.15 K, 20100 kPa	15.85 mPa·s and 15.86 mPa·s
343.15 K, 40000 kPa	22.04 mPa·s and 22.05 mPa·s
343.15 K, 80100 kPa	41.22 mPa·s and 41.24 mPa·s
343.15 K, 137100 kPa	95.56 mPa·s and 95.61 mPa·s
343.24 K, 100 kPa	11.1 mPa·s
343.33 K, 100 kPa	11.09 mPa·s
343.53 K, 100 kPa	11.15 mPa·s
368.15 K, 300 kPa	5.65 mPa·s
368.21 K, 100 kPa	5.627 mPa·s
368.54 K, 100 kPa	5.577 mPa·s
373.15 K, 300 kPa	5.04 mPa·s and 5.05 mPa·s and 4.92 mPa·s
373.15 K, 20100 kPa	6.876 mPa·s and 6.866 mPa·s
373.15 K, 40000 kPa	9.055 mPa·s and 9.075 mPa·s and 9.085 mPa·s
373.15 K, 80100 kPa	15.22 mPa·s and 15.23 mPa·s
373.15 K, 137200 kPa	30.11 mPa·s and 30.12 mPa·s and 30.15 mPa·s
